From US20130338092A1, “COMPOUNDS AND METHODS FOR TARGETING LEUKEMIC STEM CELLS” (The Broad Institute, Inc., priority 2011, published 2013)
“Also recorded” adds a separate entry of the source. Where two headings read alike, the source gives them in different places.

What was measured:
[1] = tested on: LSC-enriched leukemia cells on OP9 stromal cells; experiment: Leukemia coculture assay on OP9 stroma (primary screen); format: cell-based, murine; conditions: 5 μM
Experimental: Plate covers were re-added and the plates were placed in the incubator for 24 hours. The plate covers were removed, 100 nl of compound in dimethyl sulfoxide (DMSO) (final concentration 5 μM in 0.2% DMSO) was added to the appropriate wells using a CyBi-Well Vario (CyBio) the plate covers were replaced, and the plates were placed in the incubator for 3 days. Plate covers were removed, the media was aspirated from each plate, 50 μl of fresh media (50/50 coculture and OP9 conditioned media mix) was added and another 100 nl of compound was added to the appropriate wells. The plates were re-covered and placed in the incubator for 2 days. At this point, the plates were imaged using a IX Microscope (Molecular Devices) at 10× magnification at 9 sites per well in both the GFP and dsRed channels. Images were stored on the Broad Institute server for future analysis. […]
Briefly, primary dsRed^+ leukemia cells enriched for LSCs were isolated by flow cytometry and cocultured on GFP^+ OP9 stromal monolayers, treated with 5 μM of compound (to a final concentration of 0.2% DMSO), and imaged 5 days later by automated microscopy (dsRed channel for leukemia, and GFP channel for stroma) (FIG. 1). The stored images were analyzed for levels of cobblestoning as described herein.

[2] = tested on: human AML cell lines (U937, THP-1, NOMO-1, SKM-1, NB4, and OCI-AML3); experiment: AML cell line screen (CellTiter-Glo); format: cell-based; conditions: for IC50: Homo sapiens, AML cell line screens, read-out: IC50s across 6 cell lines
Experimental: Nomo-1, THP-1, SKM-1, NB4, and U937 cell lines were grown in RPMI (12-702F, BioWhittaker), 10% FBS (10082-147, Gibco), and 1% Pen-Strep (15140-122, Gibco) and OCI-AML3 was grown in α-MEM (36453, Stem Cell Technologies), 10% FBS (10082-147, Gibco), and 1% Pen-Strep (15140-122, Gibco). 3000 cells were plated in each well in 30 μl in white, 384 well plates (3570, Corning) and 16 hours later 100 nl of the appropriate compound was added to each well. 72 hours later the plates were cooled to room temperature and 30 μl of CellTiterGlo reagent (G7570, Promega) diluted 1:1 in PBS was added to each well and the plates were analyzed using an Envision (Perkin Elmer).
First, a traditional small molecule screen was performed on six human AML cell lines (U937, THP-1, NOMO-1, SKM-1, NB4, and OCI-AML3), two of which (NOMO-1, THP-1) contain the same oncogene (MLL-AF9) used to generate the primary leukemia cells utilized in our coculture system. The cell lines were grown in isolation under standard conditions, treated with the 160 compounds at 8-point dose, and three days later the viability of each well was quantified using CellTiter-Glo reagent. The IC50s from these AML cell line screens were then compared to the IC50s from the coculture screens. […] As discussed, the existence of such differentially-active compounds is consistent with our hypothesis that coculturing can expand the pool of therapeutically promising compounds identified in high throughput format.

[3] = tested on: CD34+ cells from primary human leukemia samples; experiment: Human CD34+ CAFC assay, leukemia samples; format: cell-based; conditions: 1.25 μM to 10 μM, 18 hours exposure, read at 5 weeks (2 weeks FLT3-ITD)
Experimental: Samples were centrifuged over Ficoll-Paque PLUS (GE Heathcare) step gradient (2000×g for 30 min in 50 ml tubes) to obtain mononuclear cells and then CD34^+ cells were selected with immunomagnetic beads (MACS Cell Separation, Miltenyi Biotec, Auburn, Calif.), except in one case, NPM1 mutation, which was CD34^− by flow cytometry and mononuclear cells were used. 50,000 cells were placed into 12.5 cm^2 flasks (Becton Dickinson Labware, Franklin Lakes, N.J.) in co-culture with the MS-5 mouse bone marrow-derived stromal cell line (kindly provided by Dr. Itoh, Dept. of Biology, Niigata University, Japan) and DMSO control and the number of final cobblestones was later read. The number of cells needed to form one cobblestone was then placed in triplicate for each sample with each drug at serial drug dilutions from 10 μM to 0.63 μM as well as with DMSO 0.5% for control purposes and incubated overnight with Iscove's modified Dulbecco's medium (IMDM, in house media preparation laboratory)+20% fetal calf serum (FCS, Atlanta Biologicals, Lawrenceville, Ga.) with glutamine (2 mM/ml, in house media preparation laboratory), monothioglycerol (MTG, 10 nM/ml, Sigma Cell Culture, St. Louis Mo.), c-Kit ligand (20 ng/ml, Amgen, Thousand Oaks, Calif.), Flt ligand (20 ng/ml, Imclone, Bridgewater, N.J.), TPO (20 ng/ml, Amgen) and IL-3 (20 ng/ml, Amgen). Cells were then washed to remove the drugs and placed into 96 well cell culture plates (Becton Dickinson) with α-MEM (in house media preparation laboratory)+12.5% FCS+12.5% horse serum (Gemini Bio-products, West Sacramento, Calif.) with glutamine, MTG, hydrocortisone (1 nM/ml, Sigma) and IL-3 in co-culture with MS-5 stromal cells. […] The same procedure was followed with normal CD34+ cells obtained from cord blood.
(§1) The cells were treated with compound or DMSO carrier control at four doses (ranging from 1.25 μM to 10 μM) in triplicate for 18 hours, washed thoroughly, then plated onto human stromal MS-5 monolayers (Itoh, K., Tezuka, H., Sakoda, H., Konno, M., Nagata, K., Uchiyama, T., Uchino, H., and Mori, K. J. (1989). Exp Hematol 17, 145-153.) and maintained in coculture with one subsequent half media change. After 5 weeks (2 weeks for the FLT3-ITD sample (Moore, M. A., Dorn, D. C., Schuring a, J. J., Chung, K. Y., and Morrone, G. (2007). Exp Hematol 35, 105-116.)), cobblestone formation was determined, and dose-response curves against the 7 cell types were generated for each compound.

[4] = tested on: LSC-enriched leukemia cells (MLL-AF9); experiment: Leukemia coculture assay on primary MSC stroma (cobblestoning readout); format: cell-based, murine; conditions: for IC50: Mus musculus; for leukemia-selective activity in coculture vs normal HSPCs: primary MSC stroma
Experimental: Whole bone marrow were harvested from C57/B16 actin-dsRed mice (006051, Jackson Labs), subjected to red blood cell lysis (Qiagen), then granulocyte-macrophage progenitors (GMPs) were isolated by Fluorescence-activated cell sorting (FACsAria, Becton Dickinson). GMPs were spinfected twice (2500 rpm, 90 min, 37 C) in the presence of mIL3 (10 ng/ml, Peprotech), mIL6 (10 ng/ml, Peprotech), and mSCF (10 ng/ml, Peprotech) with pMSCV-MLL-AF9-Neo virus then transplanted into lethally irradiated C57/B16 recipients. After disease onset, the spleens were harvested and transplanted into sublethally irradiated secondary recipients. Subsequent transplantation of bulk spleen cells from leukemic secondary mice was repeated twice to generate leukemic GMPs from quaternary transplant leukemic mouse bone marrow.
Long bones and hips from moribund leukemic mice were harvested, cleaned, crushed and sequentially passed through 100 and 70 μM filters (Falcon). The cells were RBC lysed (Qiagen) and stained in PBS+2% FBS (Omega). Antibodies included lineage markers CD4, CD8, Gr1, Mac1, IL-7R, and Ter119 (Caltag), c-kit (17-1172-83, eBioscience), Sca-1 (11-5981-82, eBioscience), CD34 (11-0341-85, eBioscience), and CD16/32 (25-0161-82, eBioscience). Hoechst 33258 (H21491, Invitrogen) was also used, to identify live cells. Cells were sorted on a FacsAria II (Becton Dickinson).
The humerii, tibiae, ilia, femurs, and spine were isolated from actin-GFP mice (000329, Jackson Lab) crushed using a mortar and pestle, washed in phosphate-buffered saline (PBS) without magnesium and calcium (Gibco) with 0.5% fetal bovine serum (FBS) (HyClone) and filtered through a 70-μm filter. Red blood cell lysis was performed with ammonium-chloride/potassium-chloride (ACK) lysing buffer (Lonza), the cells were resuspended in α-MEM (StemCell Technologies), 20% FBS (HyClone) and 1× Pen-Strep (CellGro), plated in 25 ml in 150-cm^2 tissue-culture flasks (three per mouse), and incubated at 33° C. with 5% CO2. After 2-3 days, the medium was replaced with fresh α-MEM with 20% FBS. After 8-14 days, the cells were rinsed, split by trypsinization (CellGro), pooled, filtered through a 70 μm filter, replated at 3-4 million cells per 150-cm^2 tissue-culture flask, and grown at 33° C. with 5% CO2 for 3-4 days until nearly confluent. The cells were trypsinized, filtered, and resuspended in 0.5% FBS in PBS with biotin-conjugated anti-mouse CD105 antibody (eBioscience) for 15-30 minutes at room temperature. The CD105-labeled cells were incubated with Dynabead M-280 streptavidin-linked magnetic beads (Invitrogen) for 15-30 minutes at 4° C. with agitation and isolated using magnetic separation and rinsed once. The CD105^+ cell fraction was replated at 1-2 million cells per 150-cm^2 tissue-culture flask and incubated at 33° C. with 5% CO2 for 2-3 days.
The MSCs were trypsinized, filtered, diluted in phenol-red-free alpha-MEM with 20% FBS, and plated (30 μl for a total of 2000 cells per well) on 384-well clear-bottomed black tissue-culture treated plate (3712, Corning) pretreated with fibronectin (Millipore). Plate covers (VWR) were added, the plates were spun and at 500 with slow braking, and the cells were incubated at room temperature for 60-90 minutes before incubation at 33° C. with 5% CO2 for 3 days prior to hematopoietic cell plating. […]

[5] = tested on: normal HSPCs; experiment: Normal HSPC coculture on primary MSC stroma; conditions: Mus musculus
Experimental: The material was cleaned, crushed and sequentially passed through 100 and 70 μM filters (Falcon). […] The biotin-labeled cells were spun down, resuspended in 0.5% FBS in PBS, and incubated for 15-30 minutes at 4° C. with agitation with 1 mL of Dynabead M-280 streptavidin-linked magnetic beads per 4 mice. The bead-linked cells were depleted using magnetic separation and rinsed once. The lineage- and CD48-depleted cell fraction was labeled with streptavidin-APC-Cy7 antibody from BD Biosciences and c-kit-APC, Sca-1-FITC, CD48-Pacific Blue, and CD150 PE-Cy7 antibodies from eBioscience. DsRed-positive lineage-Sca-1+c-kit+CD48− HSCs were sorted using a FACS DiVa or FACS ARIA (BD Biosciences).
A total of 20 μL of 20 μg/mL fibronectin (Millipore) in PBS was added to each well of a 384-well clear-bottomed black tissue-culture treated plate (Corning) and incubated for 30-120 minutes at 33° C. or 37° C. […] The fibronectin solution was removed from each well using a 24-channel wand aspirator; then 30 μL of BMSC solution was added to plate 2000 BMSCs/well. […] Each plate was covered with a sterile rayon breathable membrane (VWR) and plastic lid, and then spun at 500 rpm (approximately 60× gravity) with slow braking. The plates were incubated at room temperature for 60-90 minutes before incubation at 33° C. with 5% CO2 for 3 days prior to HSC addition.
The sorted HSCs, SLAMs and progenitor cells were resuspended in phenol-red free alpha-MEM with 20% FBS and diluted to 10,000 cells/mL. A total of 20 μL of cell solution containing 200 hematopoietic cells was added to each well using a multichannel pipettor or liquid-dispensing system. Each plate was covered with a sterile rayon breathable membrane (VWR) and plastic lid, and then spun at 500 rpm (approximately 60×gravity) with slow braking. The plates were incubated at room temperature for 60-90 minutes before incubation at 33° C. with 5% CO2 overnight prior to compound or cytokine addition.
Image analysis was performed using MetaXpress software from MDC and CellProfiler software from the Broad Institute of Harvard and MIT.
Compound addition and incubation was performed as described for the LSC coculture screen above, but without a media change or readdition of the compound.
The selected set was screened in 8-point dose against both normal HSPCs with a high number of replicates (6) and LSC-enriched leukemia cells, each cocultured on primary MSCs.

[6] = tested on: primary CD34+ cells from normal human cord blood; experiment: Human CD34+ CAFC assay, normal cells; conditions: 1.25 μM to 10 μM, 18 hours exposure
Experimental: Samples were centrifuged over Ficoll-Paque PLUS (GE Heathcare) step gradient (2000×g for 30 min in 50 ml tubes) to obtain mononuclear cells and then CD34^+ cells were selected with immunomagnetic beads (MACS Cell Separation, Miltenyi Biotec, Auburn, Calif.), except in one case, NPM1 mutation, which was CD34^− by flow cytometry and mononuclear cells were used. 50,000 cells were placed into 12.5 cm^2 flasks (Becton Dickinson Labware, Franklin Lakes, N.J.) in co-culture with the MS-5 mouse bone marrow-derived stromal cell line (kindly provided by Dr. Itoh, Dept. of Biology, Niigata University, Japan) and DMSO control and the number of final cobblestones was later read. The number of cells needed to form one cobblestone was then placed in triplicate for each sample with each drug at serial drug dilutions from 10 μM to 0.63 μM as well as with DMSO 0.5% for control purposes and incubated overnight with Iscove's modified Dulbecco's medium (IMDM, in house media preparation laboratory)+20% fetal calf serum (FCS, Atlanta Biologicals, Lawrenceville, Ga.) with glutamine (2 mM/ml, in house media preparation laboratory), monothioglycerol (MTG, 10 nM/ml, Sigma Cell Culture, St. Louis Mo.), c-Kit ligand (20 ng/ml, Amgen, Thousand Oaks, Calif.), Flt ligand (20 ng/ml, Imclone, Bridgewater, N.J.), TPO (20 ng/ml, Amgen) and IL-3 (20 ng/ml, Amgen). […]
as §1

[7] = tested on: primary leukemia cocultures; experiment: Mevalonolactone rescue experiment; format: cell-based, murine; conditions: 2 mM mevalanolactone with 1 μM lovastatin, 5 days
Experimental: Primary leukemia cocultures were plated as described, and treated with 2 mM mevalanolactone and/or 1 μM lovastatin as shown, for 5 days. Total leukemia cells were counted using MetaXpress software from MDC. Carriers were controlled for across all treatments. The viability of the stroma was assessed using stromal monolayers grown alone and treated in parallel, with the same readout described in the stromal toxicity screen here.

Row | Structure (SMILES) | hit in primary screen [1] | hit in primary screen ([1]; listed as L-744832) | activity against AML cell lines [2] | IC50 [2] [nM] | leukemia cobblestone inhibition (human CAFC) [3] | IC50 ([4]; MLL-AF9, LSCs on primary MSC stroma, 8-point dose, read-out: Leukemia IC50) [nM] | leukemia-selective activity in coculture vs normal HSPCs [4] | IC50 ([5]; read-out: Normal IC50, HSPCs on primary MSC stroma, 8-point dose) [nM] | toxicity against normal primary CD34+ cells (human CAFC) [6] | IC50 ([4]; MLL-AF9, read-out: Leukemia IC50) [nM] | IC50 ([5]; read-out: Normal IC50) [nM] | rescue of anti-leukemia effect of lovastatic acid [7]
1 | CC[C@H](C)[C@@H](COC(Cc1ccccc1)C(=O)N[C@@H](CCS(C)(=O)=O)C(=O)OC(C)C)NC[C@@H](N)CS (stereo partly drawn) [L-744, 832] | independently scored | independently hit |  |  |  |  |  |  |  |  |  | 
2 | COC(=O)Nc1nc2cc(SC(C)C)ccc2[nH]1 [Methiazole] |  |  | strong activity | < 625 | leukemia cobblestone inhibition was observed across all six primary leukemia samples | 466 | leukemia-selective activity | > 20000 | neither compound showed toxicity |  |  | 
3 | CCCCc1ccc2[nH]c(NC(=O)OC)nc2c1 [Parbendazole] |  |  | strong activity | < 625 | leukemia cobblestone inhibition was observed across all six primary leukemia samples |  | leukemia-selective activity |  | neither compound showed toxicity | 76 | > 20000 | 
4 | C[C@@]1(O)CCOC(=O)C1 [mevalonolactone] |  |  |  |  |  |  |  |  |  |  |  | rescues the anti-leukemia effect of lovastatin; also recorded: rescued the anti-leukemia effects of lovastatic acid
